Calls of active or inactive are those of the source. Some results are limits rather than exact numbers.

The target in assay [1] is T1, Replicative DNA helicase DnaB (Mycobacterium tuberculosis, UniProt P9WMR3).
T1 sequence (P9WMR3 whole entry): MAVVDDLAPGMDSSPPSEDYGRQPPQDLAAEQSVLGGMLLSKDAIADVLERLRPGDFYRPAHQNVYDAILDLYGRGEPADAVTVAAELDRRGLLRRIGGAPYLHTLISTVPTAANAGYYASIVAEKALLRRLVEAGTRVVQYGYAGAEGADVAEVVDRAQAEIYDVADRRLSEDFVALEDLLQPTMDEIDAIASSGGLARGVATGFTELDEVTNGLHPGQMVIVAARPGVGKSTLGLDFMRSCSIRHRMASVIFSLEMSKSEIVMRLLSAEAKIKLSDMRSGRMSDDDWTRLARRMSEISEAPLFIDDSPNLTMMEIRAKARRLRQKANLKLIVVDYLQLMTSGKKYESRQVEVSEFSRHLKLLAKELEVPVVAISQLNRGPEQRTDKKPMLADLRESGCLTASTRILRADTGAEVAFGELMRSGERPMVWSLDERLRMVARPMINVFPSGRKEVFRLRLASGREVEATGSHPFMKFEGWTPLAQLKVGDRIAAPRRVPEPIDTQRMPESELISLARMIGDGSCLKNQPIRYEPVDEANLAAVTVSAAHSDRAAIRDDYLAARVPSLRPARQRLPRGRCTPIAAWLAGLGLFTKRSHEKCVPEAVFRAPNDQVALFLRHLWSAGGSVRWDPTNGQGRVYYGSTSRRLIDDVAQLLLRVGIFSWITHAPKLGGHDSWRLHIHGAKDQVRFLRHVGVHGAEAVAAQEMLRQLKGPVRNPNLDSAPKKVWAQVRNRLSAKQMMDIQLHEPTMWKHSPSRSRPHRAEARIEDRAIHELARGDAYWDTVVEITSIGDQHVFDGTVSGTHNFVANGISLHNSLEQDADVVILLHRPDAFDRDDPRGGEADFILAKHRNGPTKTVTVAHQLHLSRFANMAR
The experiment in a line: DnaB intein splicing inhibitors, dose response, biochemical, cell-free fluorescence (AID 449749). Type of assay: functional.

Another assay addresses Genome polyprotein (dengue virus type 2, UniProt P29990). The experiment in a line: Dengue-2 NS5 methyltransferase inhibitors, primary screen, biochemical, confirmation dose response (AID 588689). It is filed as functional.
Assay [2] addresses T2, Bcl-2-related protein A1 (Mus musculus, UniProt Q07440).
T2 sequence (Q07440 whole entry): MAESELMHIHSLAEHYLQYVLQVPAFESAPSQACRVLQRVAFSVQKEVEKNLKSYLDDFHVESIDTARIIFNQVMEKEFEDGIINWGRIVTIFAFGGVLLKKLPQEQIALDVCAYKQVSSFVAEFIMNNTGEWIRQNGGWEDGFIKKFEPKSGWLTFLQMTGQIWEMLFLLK
The experiment in a line: Bfl-1 inhibitors blocking BH3 peptide binding, confirmation, biochemical, TR-FRET, mouse Bfl-1 (AID 621).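 Further: TR-FRET binding of GST-Bfl-1 to FITC-labelled Bid peptide via terbium antibody.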

Assay [3] deals with T2, Bcl-2-related protein A1. The experiment in a line: Bfl-1 binding inhibitors, SAR follow-up, biochemical, fluorescence polarization (AID 1070). (Polarisation of emitted light reports the rotation of a fluorescent probe.)
A further assay deals with T3, Protein RecA (Mycobacterium tuberculosis, UniProt P9WHJ3).
T3 sequence (P9WHJ3 whole entry): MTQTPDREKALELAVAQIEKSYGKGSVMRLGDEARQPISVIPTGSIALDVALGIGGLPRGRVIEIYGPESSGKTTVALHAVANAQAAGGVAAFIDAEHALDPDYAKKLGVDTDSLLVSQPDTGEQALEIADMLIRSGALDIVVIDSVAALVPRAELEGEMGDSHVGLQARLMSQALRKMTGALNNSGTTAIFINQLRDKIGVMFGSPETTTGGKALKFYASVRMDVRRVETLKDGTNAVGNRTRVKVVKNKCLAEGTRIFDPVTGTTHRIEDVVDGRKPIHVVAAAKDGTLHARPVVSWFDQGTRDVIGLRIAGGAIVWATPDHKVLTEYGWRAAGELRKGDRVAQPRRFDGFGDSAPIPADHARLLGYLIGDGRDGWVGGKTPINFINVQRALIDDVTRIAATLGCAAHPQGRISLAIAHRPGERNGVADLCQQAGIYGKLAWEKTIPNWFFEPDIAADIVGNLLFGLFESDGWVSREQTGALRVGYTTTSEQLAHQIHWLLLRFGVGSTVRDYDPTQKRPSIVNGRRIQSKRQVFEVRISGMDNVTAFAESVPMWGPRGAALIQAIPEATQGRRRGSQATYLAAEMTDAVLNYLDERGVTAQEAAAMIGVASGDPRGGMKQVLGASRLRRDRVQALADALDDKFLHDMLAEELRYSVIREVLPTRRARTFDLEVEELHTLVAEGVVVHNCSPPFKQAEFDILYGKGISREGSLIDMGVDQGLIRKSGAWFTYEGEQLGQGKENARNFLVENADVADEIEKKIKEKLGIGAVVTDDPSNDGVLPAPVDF
The experiment in a line: Fluorescence Cell-Free Homogeneous Dose Retest to Identify Inhibitors of RecA-Intein Splicing Activity. [Related pubchem assays (depositor defined):AID2097, AID2223, AID489010, AID492950]. Type of assay: functional.

The target in assay [4] is Glyceraldehyde-3-phosphate dehydrogenase (Homo sapiens, UniProt P04406).
Sequence of Glyceraldehyde-3-phosphate dehydrogenase (P04406 whole entry): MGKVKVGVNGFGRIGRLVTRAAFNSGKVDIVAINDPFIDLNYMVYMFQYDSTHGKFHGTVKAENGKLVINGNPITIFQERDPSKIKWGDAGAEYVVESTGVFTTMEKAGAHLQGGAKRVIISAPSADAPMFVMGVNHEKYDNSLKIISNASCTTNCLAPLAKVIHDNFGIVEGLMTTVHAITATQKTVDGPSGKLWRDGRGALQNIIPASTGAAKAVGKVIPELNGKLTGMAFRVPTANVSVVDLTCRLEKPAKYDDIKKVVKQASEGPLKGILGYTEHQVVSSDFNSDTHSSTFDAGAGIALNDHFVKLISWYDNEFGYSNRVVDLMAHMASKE
Assay [5] in a line: Counterscreen for inhibitors of Trypanosoma brucei methionyl tRNA synthetase (MetRS): Luminescence-based cell-based high throughput dose response assay to identify compounds that are cytotoxic to Jurkat human T lymphocyte cells. Type of assay: functional.
The target in assay [6] is T4, Methionyl-tRNA synthetase, putative (Trypanosoma brucei brucei, UniProt Q38C91).
T4 sequence (Q38C91 whole entry): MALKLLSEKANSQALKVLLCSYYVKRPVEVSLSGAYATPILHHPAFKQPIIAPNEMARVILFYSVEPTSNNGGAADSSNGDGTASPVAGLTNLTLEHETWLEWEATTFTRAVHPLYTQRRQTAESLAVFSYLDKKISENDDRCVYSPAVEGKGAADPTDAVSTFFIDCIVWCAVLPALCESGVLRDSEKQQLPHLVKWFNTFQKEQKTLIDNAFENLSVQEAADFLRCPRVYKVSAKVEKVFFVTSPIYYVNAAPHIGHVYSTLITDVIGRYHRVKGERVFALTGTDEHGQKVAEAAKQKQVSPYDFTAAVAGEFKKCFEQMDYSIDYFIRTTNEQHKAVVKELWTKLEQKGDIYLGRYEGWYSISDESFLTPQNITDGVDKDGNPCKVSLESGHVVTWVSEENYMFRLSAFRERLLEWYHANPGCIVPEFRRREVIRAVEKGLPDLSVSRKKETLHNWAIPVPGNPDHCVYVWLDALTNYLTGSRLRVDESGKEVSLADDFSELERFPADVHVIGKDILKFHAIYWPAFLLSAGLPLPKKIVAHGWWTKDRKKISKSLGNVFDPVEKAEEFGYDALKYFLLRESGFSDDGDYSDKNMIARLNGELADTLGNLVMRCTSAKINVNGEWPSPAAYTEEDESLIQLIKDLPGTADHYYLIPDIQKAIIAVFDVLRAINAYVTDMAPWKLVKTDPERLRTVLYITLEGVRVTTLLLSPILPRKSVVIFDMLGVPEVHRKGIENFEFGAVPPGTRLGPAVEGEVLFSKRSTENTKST
It is filed as functional, Trypanosoma brucei brucei strain 927/4 GUTat10.1.

The nature of assay [7]: Late stage counterscreen for inhibitors of Trypanosoma brucei methionyl tRNA synthetase (MetRS): Luminescence-based cell-based high throughput dose response assay to identify compounds that are cytotoxic to Jurkat human T lymphocyte cells. Type of assay: functional.
The target in assay [8] is T4, Methionyl-tRNA synthetase, putative. Type of assay: functional, Trypanosoma brucei brucei strain 927/4 GUTat10.1. The source holds these as a separate data set.
Assay [9] is described as follows: P. falciparum Dd2 growth inhibitors, dose response, SYBR Green, dry powder samples, set 9 (AID 1159568). It is filed as functional, cell-based.
In assay [10] the target is E3 ubiquitin-protein ligase Mdm2 (Homo sapiens, UniProt Q00987). The experiment in a line: enhancers of MDM2-luciferase reporter signal, concentration-effect titration, project on inhibitors of MDM2 ubiquitin ligase, cellular assay, luminescent readout, 384-well plate format (AID 1394).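 Further: MDM2 E3 inhibitors raise luminescence so EC50 is for signal enhancement.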 Type of assay: functional.
Sequence of E3 ubiquitin-protein ligase Mdm2 (Q00987 whole entry): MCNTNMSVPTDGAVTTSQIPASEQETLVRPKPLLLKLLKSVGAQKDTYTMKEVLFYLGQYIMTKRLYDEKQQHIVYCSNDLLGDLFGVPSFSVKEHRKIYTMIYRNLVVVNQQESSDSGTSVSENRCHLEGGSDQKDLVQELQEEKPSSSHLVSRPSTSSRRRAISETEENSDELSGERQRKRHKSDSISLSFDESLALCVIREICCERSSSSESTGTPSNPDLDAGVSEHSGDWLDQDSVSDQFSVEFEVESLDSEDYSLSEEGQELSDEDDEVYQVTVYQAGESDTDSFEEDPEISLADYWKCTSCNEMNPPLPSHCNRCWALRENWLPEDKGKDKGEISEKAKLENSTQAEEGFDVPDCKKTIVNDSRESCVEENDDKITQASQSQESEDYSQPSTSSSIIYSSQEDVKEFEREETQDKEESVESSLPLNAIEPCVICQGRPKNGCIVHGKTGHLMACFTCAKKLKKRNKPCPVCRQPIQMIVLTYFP
In a further assay the test system is Vero. The experiment in a line: host cell cytotoxicity of antiviral hits, dose response, cytotoxicity control for West Nile virus antiviral project, secondary assay (AID 1650). Type of assay: functional. Conditions: Chlorocebus sabaeus.
Assay [11] concerns the target T5, SUMO-activating enzyme (Homo sapiens, UniProt Q9UBT2). The experiment in a line: inhibitors of in vitro SUMOylation cascade, primary screen, biochemical, HTRF, uHTS (AID 2006). Type of assay: protein-complex assay. For orientation: TR-FRET usually uses a lanthanide donor and a delayed reading to cut background.
Assay [12] deals with Eukaryotic translation initiation factor 4E (Mus musculus, UniProt P63073). The experiment in a line: eIF4E–eIF4G protein interaction inhibitors, dose response, biochemical, TR-FRET (AID 855).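 Further: potency for disrupting eIF4E binding to eIF4GI seen as loss of FRET.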 Type of assay: functional.
Sequence of Eukaryotic translation initiation factor 4E (P63073 whole entry): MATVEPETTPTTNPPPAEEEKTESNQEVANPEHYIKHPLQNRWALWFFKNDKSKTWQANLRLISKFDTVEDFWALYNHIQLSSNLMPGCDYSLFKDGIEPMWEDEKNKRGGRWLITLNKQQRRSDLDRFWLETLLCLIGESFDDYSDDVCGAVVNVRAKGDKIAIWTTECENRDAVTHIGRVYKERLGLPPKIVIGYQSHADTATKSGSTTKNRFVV
Assay [13] concerns the target Bifunctional protein GlmU (Mycobacterium tuberculosis, UniProt P9WMN3). The experiment in a line: Inhibitors of Mycobacterial Glucosamine-1-phosphate acetyl transferase (GlmU). Secondary screen. The arrangement: species or system Mycobacterium tuberculosis H37Rv.
For assay [14], the target named is T5, SUMO-activating enzyme. The experiment in a line: SUMOylation inhibitor hit validation, confirmation, SUMOylation inhibitor project, biochemical, AlphaScreen (AID 2018). It is filed as functional. (In Alpha technology, singlet oxygen from a donor bead excites a nearby acceptor bead.)
A short description of assay [15]: P. falciparum ATP4 D1247Y mutant growth inhibitors, dose response, NITD609-resistant line, SYBR Green, dry powder (AID 1159571).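 Further: parasites synchronized at ring stage by sorbitol before testing.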 Type of assay: functional, cell-based.
A short description of assay [16]: P. falciparum Dd2 growth inhibitors, dose response, SYBR Green, cherry-picked samples (AID 1159567). It is filed as functional, cell-based.
The nature of assay [17]: P. falciparum 3D7-ScDHODH growth inhibitors, dose response, SYBR Green, dry powder samples (AID 1159570).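 Further: parasite growth measured after 72 hours of compound exposure.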 It is filed as functional, cell-based.
A short description of assay [18]: HepG2 cell cytotoxicity, dose response, cytotoxicity control, cherry-picked samples (AID 1159577). It is filed as functional, cell-based.
The nature of assay [19]: P. falciparum Dd2 growth inhibitors, dose response, SYBR Green, dry powder samples (AID 1159566).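 Further: potency for growth inhibition with lower SYBR green DNA signal.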 It is filed as functional, cell-based.
A short description of assay [20]: HepG2 cell cytotoxicity, dose response, cytotoxicity control, plate reader, dry powder samples (AID 1159569).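 Further: inhibitor potency with signal falling toward the positive control level.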 Type of assay: functional, cell-based.

Sequence of Bifunctional protein GlmU (P9WMN3 whole entry): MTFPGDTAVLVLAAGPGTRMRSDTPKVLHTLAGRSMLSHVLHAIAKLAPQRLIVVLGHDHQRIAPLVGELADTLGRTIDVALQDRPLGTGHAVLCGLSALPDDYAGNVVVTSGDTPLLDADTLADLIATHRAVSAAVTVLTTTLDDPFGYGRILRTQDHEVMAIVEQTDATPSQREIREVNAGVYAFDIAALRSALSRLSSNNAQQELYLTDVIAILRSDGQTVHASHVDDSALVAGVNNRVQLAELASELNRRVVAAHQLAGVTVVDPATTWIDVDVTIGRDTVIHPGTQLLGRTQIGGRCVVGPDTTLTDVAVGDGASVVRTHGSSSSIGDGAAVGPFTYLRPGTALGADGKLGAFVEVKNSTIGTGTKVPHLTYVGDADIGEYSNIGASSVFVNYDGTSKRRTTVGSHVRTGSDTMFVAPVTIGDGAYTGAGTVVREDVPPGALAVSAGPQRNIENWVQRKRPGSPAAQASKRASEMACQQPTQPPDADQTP
T5 sequence (Q9UBE0 whole entry): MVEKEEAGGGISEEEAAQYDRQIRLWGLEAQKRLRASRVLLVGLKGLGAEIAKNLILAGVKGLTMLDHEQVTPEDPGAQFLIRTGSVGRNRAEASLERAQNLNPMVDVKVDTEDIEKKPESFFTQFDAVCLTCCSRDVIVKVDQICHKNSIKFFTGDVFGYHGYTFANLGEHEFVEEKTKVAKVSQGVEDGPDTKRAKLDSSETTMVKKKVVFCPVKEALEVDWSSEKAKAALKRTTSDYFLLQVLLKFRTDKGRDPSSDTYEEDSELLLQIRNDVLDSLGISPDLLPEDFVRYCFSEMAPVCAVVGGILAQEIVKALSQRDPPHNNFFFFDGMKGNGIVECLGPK
T5 sequence (Q9UBT2 whole entry): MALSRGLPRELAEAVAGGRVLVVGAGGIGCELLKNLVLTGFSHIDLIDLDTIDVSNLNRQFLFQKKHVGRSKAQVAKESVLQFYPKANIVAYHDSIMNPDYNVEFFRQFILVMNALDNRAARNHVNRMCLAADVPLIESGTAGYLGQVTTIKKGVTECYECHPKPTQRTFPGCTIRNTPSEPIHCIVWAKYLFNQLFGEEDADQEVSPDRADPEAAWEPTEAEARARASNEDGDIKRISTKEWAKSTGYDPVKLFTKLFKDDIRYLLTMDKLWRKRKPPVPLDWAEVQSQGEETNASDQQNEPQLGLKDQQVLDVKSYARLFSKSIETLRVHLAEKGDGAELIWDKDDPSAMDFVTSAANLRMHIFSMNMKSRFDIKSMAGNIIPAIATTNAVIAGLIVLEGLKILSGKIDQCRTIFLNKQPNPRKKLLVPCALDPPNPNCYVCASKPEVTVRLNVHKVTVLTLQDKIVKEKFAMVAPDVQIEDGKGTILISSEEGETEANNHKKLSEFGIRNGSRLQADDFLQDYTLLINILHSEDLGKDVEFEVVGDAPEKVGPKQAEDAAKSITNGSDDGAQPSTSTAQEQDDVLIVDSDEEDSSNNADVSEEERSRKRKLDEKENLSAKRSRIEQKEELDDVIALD
Sequence of Genome polyprotein (P29990 2492-3391 limits assumed): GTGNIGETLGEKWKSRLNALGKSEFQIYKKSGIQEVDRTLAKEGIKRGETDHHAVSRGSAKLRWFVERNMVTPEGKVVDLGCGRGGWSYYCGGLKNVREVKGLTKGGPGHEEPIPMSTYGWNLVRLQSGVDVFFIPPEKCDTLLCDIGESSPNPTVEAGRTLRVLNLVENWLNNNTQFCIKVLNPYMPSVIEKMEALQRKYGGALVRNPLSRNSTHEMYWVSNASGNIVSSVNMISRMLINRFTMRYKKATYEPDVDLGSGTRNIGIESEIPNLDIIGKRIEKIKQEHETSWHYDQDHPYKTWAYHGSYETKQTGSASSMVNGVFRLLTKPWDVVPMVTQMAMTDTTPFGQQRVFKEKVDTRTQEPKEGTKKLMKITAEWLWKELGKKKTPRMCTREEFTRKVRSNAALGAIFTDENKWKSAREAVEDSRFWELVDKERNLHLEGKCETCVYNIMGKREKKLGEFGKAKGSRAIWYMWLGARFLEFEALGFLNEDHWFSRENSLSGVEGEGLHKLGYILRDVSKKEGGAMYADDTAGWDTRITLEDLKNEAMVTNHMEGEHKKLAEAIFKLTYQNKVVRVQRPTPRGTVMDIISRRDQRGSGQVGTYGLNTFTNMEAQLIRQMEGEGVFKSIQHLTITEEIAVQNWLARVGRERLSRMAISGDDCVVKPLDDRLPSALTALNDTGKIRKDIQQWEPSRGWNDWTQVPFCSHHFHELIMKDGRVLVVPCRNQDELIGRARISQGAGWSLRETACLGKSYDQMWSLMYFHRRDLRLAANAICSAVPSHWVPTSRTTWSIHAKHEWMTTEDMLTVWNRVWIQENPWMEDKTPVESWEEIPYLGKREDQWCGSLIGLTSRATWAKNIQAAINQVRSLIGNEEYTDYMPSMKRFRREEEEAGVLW

On to `O=C1C(Cl)=C(N2CCOCC2)C(=O)N1c1cccc(Cl)c1`, for which, in assay [1], the AC50 is 4.14 µM (active). Besides, the IC50 is 13.6 µM (active) at Genome polyprotein, 6.37 µM (active) on Bcl-2-related protein A1 [2], 8.47 µM (active) at Bcl-2-related protein A1 [3] and > 10 µM (inconclusive) in assay [4]. In addition, the EC50 at Protein RecA is 1.46 µM (active).

As for `CCCCCCCCCC1NC(C(=O)O)Cc2c1[nH]c1ccccc21` (centres undefined), the IC50 was 83.3 µM (inactive) in assay [5], 3.75 µM (active) in assay [6], > 83.3 µM (inactive) in assay [7] and 1.96 µM (active) in assay [8].

Regarding `C[C@H]1CN([C@@H](C)CO)C(=O)c2cccc(NC(=O)c3ccc(-c4nccs4)cc3)c2O[C@H]1CN(C)C(=O)Nc1ccc(C(F)(F)F)cc1`, the concentration at half-maximal activity (AC50) in assay [9] was 8.06 µM (active).

For `O=C(NCc1nc2ccccc2[nH]1)C1=C[C@@H](c2ccc(Br)cc2)C[C@@H](OCc2ccc(CO)cc2)O1`, the IC50 in [5] was 33.7 µM (inactive); in assay [6], 1.33 µM (active); in assay [7], 66.6 µM (inactive); in [8], 0.498 µM (active).

Consider `CCOc1ccc(NC(=S)NCCCN2CCOCC2)cc1`, for which the EC50 in assay [10] is recorded as 1.95 µM (not active).

Consider `OC(c1nnc(-c2ccccc2)o1)c1cccs1` (centres undefined), for which the EC50 in assay [10] is recorded as 441 µM (not active).

`C[C@H](CO)N1C[C@H](C)[C@@H](CN(C)S(=O)(=O)c2ccccc2)OCCCC[C@H](C)Oc2ccc(NC(=O)Nc3ccc4c(c3)OCO4)cc2C1=O`: the AC50 in [9] is 2.35 µM (active).

Turning to `Cc1ccccc1OCCNc1cc(N2CCN(CCO)CC2)ccc1[N+](=O)[O-]`, the CC50 in the assay with Vero is 19.4 µM (active).

For the compound `O=C(O)CCCCC1CCSS1` (stereo not drawn) [LIPOIC ACID, ALPHA], the IC50 at SUMO-activating enzyme [11] was 4.74 µM (active); in [12] it was 16.6 µM (active); in assay [13], 3.91 µM (active); at SUMO-activating enzyme [14] it was 0.62 µM (active).

Regarding `COc1ccc2c3c([nH]c2c1)[C@H](CO)N(C(=O)CN(C)C)CC31CCN(CC2CCCCC2)CC1`, the AC50 is 1.12 µM (active) in assay [15]; 0.644 µM (active) in assay [16]; 0.0468 µM (active) in assay [17]; > 39 µM (inactive) in [18]; 0.433 µM (active) in assay [19]; 19.1 µM (active) in assay [20].

On to `O=C1C(Cl)=C(Nc2ccccc2O)C(=O)N1CCc1ccccc1`, for which, in assay [13], the IC50 was 85.3 µM (active).

As to `O=C1C(Cl)=C(N2CCOCC2)C(=O)N1c1ccc(Cl)cc1Cl`, the IC50 on Bcl-2-related protein A1 [2] was > 100 µM (not active); on Bcl-2-related protein A1 [3] it was > 100 µM (not active); in assay [4] it was > 10 µM (inconclusive).

Take `OC[C@@H]1[C@@H](c2ccccc2)C2(CN(Cc3ccc4c(c3)OCO4)C2)N1Cc1ccccc1`: the AC50 is 0.616 µM (active) in assay [15]; 0.619 µM (active) in assay [16]; 0.634 µM (active) in [17]; > 39 µM (inactive) in assay [18]; 0.444 µM (active) in assay [19]; 17.9 µM (active) in assay [20].

Broadly, the AC50 is the concentration giving half of the maximal activity seen. One may read the IC50 as the point on the concentration scale where inhibition reaches its midpoint. In general, EC50 refers to the concentration giving half of the maximal effect. Usually CC50 stands for the concentration at which the toxic effect on the cells reaches its halfway point.

Values taken from ChEMBL document CHEMBL1201862, “PubChem BioAssay data set” (2004).
